# In patent US20210236476A1, “METHODS OF TREATING CANCER WITH SMALL MOLECULE PD-L1 INHIBITORS” (CHEMOCENTRYX, INC., priority 2018, published 2021):
# Molecular target: T1, human PD-L1 / human PD-1 interaction (Homo sapiens, UniProt Q9NZQ7)
# T1 construct: purchased R&D (PD-L1); ACRO Biosystems (PD-1, biotin)
# Experiment: ELISA of PD-1/PD-L1 interaction
# Type: binding
# In short: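 Plates coated with 1 μg/mL human PD-L1 and blocked with BSA; serially diluted (1:5) compounds plus biotinylated human PD-1 (0.3 μg/mL) incubated 1 h at 37° C. Bound PD-1 detected with streptavidin-HRP/TMB, absorbance at 450 nm.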
# T1 sequence (Q9NZQ7 19-239 limits assumed): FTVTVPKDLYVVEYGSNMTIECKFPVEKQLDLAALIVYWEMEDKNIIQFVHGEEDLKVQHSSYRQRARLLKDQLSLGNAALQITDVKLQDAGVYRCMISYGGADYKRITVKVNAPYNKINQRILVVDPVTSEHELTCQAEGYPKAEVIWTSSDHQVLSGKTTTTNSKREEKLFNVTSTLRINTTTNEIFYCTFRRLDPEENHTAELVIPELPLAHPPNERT
row,IC50 [nM],Compound
1,< 5,Cc1c(OCCCN2CCC(O)CC2)cccc1-c1cccc2c1CC[C@@H]2Oc1cc(OCc2cc(C#N)cc(C#N)c2)c(CN[C@@H](CO)C(=O)O)cc1Cl
2,< 5,CC(CO)(NCc1cc(Cl)c(O[C@H]2CCc3c(-c4cccc(OCCCN5CC(F)C5)c4Cl)cccc32)cc1OCc1cncc(C#N)c1)C(=O)O (stereo partly shown)
3,< 5,N#Cc1cncc(COc2cc(O[C@H]3CCc4c(-c5cccc(OCCCN6CCC6)c5Cl)cccc43)c(Cl)cc2CNC[C@@H]2CCC(=O)N2)c1
4,< 5,N#Cc1cncc(COc2cc(O[C@H]3CCc4c(-c5cccc(OCCCN6CCC(F)CC6)c5Cl)cccc43)c(Cl)cc2CN[C@H]2CCOC[C@@H]2O)c1 [drawing 198]
5,5 to 500,CCOc1cc(O[C@H]2CCc3c(-c4cccc(OCCCN5CCC5(C)C)c4C)cccc32)c(Cl)cc1CN1CC[C@H](C(=O)O)C1
6,< 5,C[C@@H](O)[C@H](NCc1cc(Cl)c(O[C@H]2CCc3c(-c4cccc(OCCCN5CC(O)C5)c4Cl)cccc32)cc1OCc1cncc(C#N)c1)C(N)=O
7,< 5,N#Cc1cncc(COc2cc(O[C@H]3CCc4c(-c5cccc(OCCCN6CCC(F)CC6)c5Cl)cccc43)c(Cl)cc2CN2CC[C@@H](F)C2)c1
8,< 5,Cc1c(OCCCN2CCC(F)CC2)cccc1-c1cccc2c1CC[C@@H]2Oc1cc(OCc2cncc(C#N)c2)c(CNCC2CCC(=O)N2)cc1Cl (stereo partly shown)
9,< 5,Cc1c(OCCCN2CCC(O)CC2)cccc1-c1cccc2c1CC[C@@H]2Oc1cc(OCCCN2CC[C@@H](O)C2)c(CN[C@@H]2CCCC[C@@H]2O)cc1Cl
10,< 5,N#Cc1cncc(COc2cc(O[C@H]3CCc4c(-c5cccc(OCCCN6CC7(CC(F)C7)C6)c5Cl)cccc43)c(Cl)cc2CN[C@H]2CCC[C@@H]2O)c1
11,< 5,Cc1c(OCCCN2CCCC2)cccc1-c1cccc2c1CC[C@@H]2Oc1cc(OCc2cc(C#N)cc(C#N)c2)c(CN[C@H]2CCC(=O)NC2)cc1Cl
12,< 5,Cc1c(OCCCN2CCC(F)CC2)cccc1-c1cccc2c1CC[C@@H]2Oc1cc(OCc2cncc(C#N)c2)c(CNC[C@@H]2CCC(=O)N2)cc1Cl
13,5 to 500,Cc1c(OCCCN2CC[C@H](F)C[C@@H]2C)cccc1-c1cccc2c1CC[C@@H]2Oc1cc(OCc2cc(C#N)cc(C#N)c2)c(CN[C@H]2CCC(=O)NC2)cc1Cl
14,< 5,CCOc1cc(O[C@H]2CCc3c(-c4cccc(OCCCN5CC6(CC(O)C6)C5)c4C)cccc32)c(Cl)cc1CN[C@@H](CO)C(=O)O
15,< 5,CC1(O)CN(CCCOc2cccc(-c3cccc4c3CC[C@@H]4Oc3cc(OCc4cncc(C#N)c4)c(CN[C@@](C)(CO)C(=O)O)cc3Cl)c2Cl)C1
16,< 5,CCOc1cc(O[C@H]2CCc3c(-c4cccc(OCCCN5CCC5(C)C)c4C)cccc32)c(Cl)cc1CNC[C@@H]1CCC(=O)N1
17,< 5,CCOc1cc(O[C@H]2CCc3c(-c4cccc(OCCCN5[C@H](C)CC[C@H]5C)c4C)cccc32)c(Cl)cc1CNC[C@@H]1CCC(=O)N1
18,< 5,N#Cc1cncc(COc2cc(O[C@H]3CCc4c(-c5cccc(OCCCN6CC7(CC(F)C7)C6)c5Cl)cccc43)c(Cl)cc2CN[C@@H]2CC[C@H]2O)c1
19,< 5,N#Cc1cc(C#N)cc(COc2cc(O[C@H]3CCc4c(-c5cccc(OCCCN6CCC(F)CC6)c5Cl)cccc43)c(Cl)cc2CNC[C@H]2CCC(=O)N2)c1
20,< 5,Cc1c(OCCCN2CCC(O)CC2)cccc1-c1cccc2c1CC[C@@H]2Oc1cc(OCc2cncc(C#N)c2)c(CNCC(C)(C)O)cc1Cl
21,< 5,Cc1c(OCCCN2CCC(O)CC2)cccc1-c1cccc2c1C[C@@H](F)[C@@H]2Oc1cc(OCc2cncc(C#N)c2)c(CN[C@@H](CO)C(=O)O)cc1Cl
22,5 to 500,CCOc1cc(O[C@H]2CCc3c(-c4cccc(OCCCN5CCC5(C)C)c4C)cccc32)c(Cl)cc1CNCCC(=O)OC(C)C
